pEC50: −log10 of the molar value.

One experiment deals with HIV (HTLV-III B strain). The experiment in a line: HIV replication inhibition assay (MTT, MT-4 cells). It counts as cell-based. The note with it: Human immunodeficiency virus 1, MT4, 96 h, Table A-7, four days. Summed up: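 MT-4 cells (2.5×10^4/well) infected with HTLV-III B stock (60 pfu) in presence of compound, cultured four days at 37 °C. Viability by MTT reduction, formazan read at 560 and 690 nm. EC50 is concentration inhibiting virus-induced cytotoxicity by 50%.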
Broadly, the pEC50 is the EC50 on a negative log10 scale, so that one unit is a factor of ten. `Cc1cccc2c1-c1c(C)c(-c3ccc4c(c3C)NCCO4)c([C@H](OC(C)(C)C)C(=O)O)c(C)c1N(S(C)(=O)=O)C2` [Compound 347] had a pEC50 of 7.66.

The molecule `Cc1ccc2c(c1)CN(S(C)(=O)=O)c1c(C)c([C@H](OC(C)(C)C)C(=O)O)c(-c3ccc4c(c3C)NCCO4)c(C)c1-2` [Compound 348] gave a pEC50 of 8.70.

Molecule `Cc1c(-c2c(C)c3c(c(C)c2[C@H](OC(C)(C)C)C(=O)O)N(S(C)(=O)=O)Cc2cccc(F)c2-3)ccc2c1NC(=O)CO2` [Compound 350] showed a pEC50 of 7.02.

Molecule `CCC(C)(C)O[C@H](C(=O)O)c1c(C)c2c(c(C)c1-c1ccc3c(c1C)NCCO3)-c1c(F)cccc1CN2S(C)(=O)=O` [Compound 351] gave a pEC50 of 8.35.

In the case of `Cc1ccc(-c2c(C)c3c(c(C)c2[C@H](OC(C)(C)C)C(=O)O)N(S(C)(=O)=O)Cc2cccc(F)c2-3)cc1N` [Compound 352], the pEC50 is 8.00.

As to `Cc1c(-c2c(C)c3c(c(C)c2[C@H](OC(C)(C)C)C(=O)O)N(C(N)=O)Cc2c(F)ccc(F)c2-3)ccc2c1NCCO2` [Compound 358], the pEC50 was 7.04.

For `Cc1c(-c2c(C)c3c(c(C)c2[C@H](OC(C)(C)C)C(=O)O)N(S(C)(=O)=O)Cc2cccc(F)c2-3)ccc2c1NCCC2` [Compound 359], the pEC50 was 8.27.

Take `Cc1c(-c2c(C)c3c(c(C)c2[C@H](OC(C)(C)C)C(=O)O)N(S(C)(=O)=O)Cc2cccc(F)c2-3)ccc2c1OCCO2` [Compound 360]: the pEC50 is 8.36.

Staying with this experiment, now noted: Human immunodeficiency virus 1, MT4, 96 h, Table A-8 (continuation of Tables A-1 to A-9), four days.
`Cc1c(-c2ccc3c(c2)NCC3)c([C@H](OC(C)(C)C)C(=O)O)c(C)c2c1-c1c(F)cccc1CN2S(C)(=O)=O` [Compound 363] gave a pEC50 of 7.85.

Consider `Cc1c(-c2ccc(Cl)c3[nH]ccc23)c([C@H](OC(C)(C)C)C(=O)O)c(C)c2c1-c1c(F)cccc1CN2S(C)(=O)=O` [Compound 364], for which the pEC50 is 7.80.

With `Cc1c(-c2c(C)c3c(c(C)c2[C@H](OC(C)(C)C)C(=O)O)N(S(C)(=O)=O)Cc2cccc(F)c2-3)ccc(Br)c1N` [Compound 367], the pEC50 is 8.12.

`COc1cnc2c(c1)CN(S(C)(=O)=O)c1c(C)c([C@H](OC(C)(C)C)C(=O)O)c(-c3ccc(C)cc3)c(C)c1-2` [Compound 368] gave a pEC50 of 8.41.

The molecule `Cc1c(-c2ccc(Cl)cc2)c([C@H](OC(C)(C)C)C(=O)O)c(C)c2c1-c1ncccc1CN2S(C)(=O)=O` [Compound 369] had a pEC50 of 7.36.

Molecule `COc1ccc2c(n1)CN(S(C)(=O)=O)c1c(C)c([C@H](OC(C)(C)C)C(=O)O)c(-c3ccc(C)cc3)c(C)c1-2` [Compound 371] had a pEC50 of 8.34.

Molecule `Cc1c(-c2c(C)c3c(c(C)c2[C@H](OC(C)(C)C)C(=O)O)N(S(C)(=O)=O)Cc2cccc(F)c2-3)ccc(Cl)c1O` [Compound 372] had a pEC50 of 7.09.

Molecule `COc1ccnc2c1CN(S(C)(=O)=O)c1c(C)c([C@H](OC(C)(C)C)C(=O)O)c(-c3ccc(C)cc3)c(C)c1-2` [Compound 374] gave a pEC50 of 7.20.

`Cc1ccc(-c2c(C)c3c(c(C)c2[C@H](OC2(C)CCC2)C(=O)O)N(S(C)(=O)=O)Cc2cccc(F)c2-3)cc1` [Compound 375] had a pEC50 of 7.72.

As for `Cc1c(-c2ccc(Cl)cc2)c([C@H](OC2(C)CCC2)C(=O)O)c(C)c2c1-c1c(F)cccc1CN2S(C)(=O)=O` [Compound 378], the pEC50 is 7.44.

For `COc1cc2c(cn1)-c1c(C)c(-c3ccc(Cl)cc3)c([C@H](OC(C)(C)C)C(=O)O)c(C)c1N(S(C)(=O)=O)C2` [Compound 379], the pEC50 is 8.64.

For the molecule `Cc1ccc2c(n1)CN(S(C)(=O)=O)c1c(C)c([C@H](OC(C)(C)C)C(=O)O)c(-c3ccc(Cl)cc3)c(C)c1-2` [Compound 380], the pEC50 was 7.89.

Take `Cc1ccc(-c2c(C)c3c(c(C)c2[C@H](OC(C)(C)C)C(=O)O)N(S(C)(=O)=O)Cc2cccc(F)c2-3)c(O)c1` [Compound 381]: the pEC50 is 8.30.

`Cc1ccc(-c2c(C)c3c(c(C)c2[C@H](OC(C)(C)C)C(=O)O)N(S(C)(=O)=O)Cc2cc(C)cnc2-3)c(O)c1` [Compound 382] had a pEC50 of 7.31.

The values are drawn from patent US20180362543A1, “HIV REPLICATION INHIBITOR” (Shionogi & Co., Ltd., priority 2013, published 2018).
